In paper PMC7031696 (Cell chemical biology, 2019):
Entries after “also recorded” stand apart in the source; their conditions may differ. Like-named read-outs stand apart in the source and are kept apart here.

Legend:
[1] = tested on: asynchronous 3D7-A10 parasite cultures; experiment: Standard 72-h exposure asexual blood stage susceptibility assay (IC50^72h); type: cell-based, Plasmodium falciparum; settings: Plasmodium falciparum, 3D7, 72 h, read-out: Overall (72hr assay) Mean IC50 (IC50^72h)
[2] = tested on: 3D7-MR4 trophozoite parasite-infected RBCs; experiment: Metabolomic profiling (hydrophilic metabolite changes, UHPLC-MS); type: cell-based, Plasmodium falciparum
[3] = tested on: Plasmodium falciparum 3D7-A10 parasites; experiment: Stage specificity assay (8-h exposure of synchronized stages, IC50^8h); type: cell-based; settings: for IC50: Plasmodium falciparum

IC50 [1]: 1.3 nM
Ratio lowest IC50 8hr/IC50 72hr ([3]; 3D7-A10): 11.6
IC50 ([3]; 3D7, read-out: IC50^8h values, text summary of Table S1): < 300 nM
Structure (SMILES): CCCCN(CCCC)CC(O)c1cc(Cl)cc2c1-c1ccc(Cl)cc1/C2=C/c1ccc(Cl)cc1 (centres unmarked) [Lumefantrine, reference compound]
peptide levels (hemoglobin catabolism signature) ([2]; 10 × IC50^72h, 2.5 hr, trophozoites): minor peptide increases
Log2(fold changes) 3-phosphoglycerate ([2]; metabolite 3-phosphoglycerate, log2 fold change): 0.2561
Log2(fold changes) 4-Pyridoxic acid ([2]; metabolite 4-Pyridoxic acid, log2 fold change): 0.0070
Log2(fold changes) 4-aminobutyrate ([2]; metabolite 4-aminobutyrate, log2 fold change): -0.1610
Log2(fold changes) 4-phosphopantetheine ([2]; metabolite 4-phosphopantetheine, log2 fold change): 0.0000
Log2(fold changes) 4-phosphopantothenate ([2]; metabolite 4-phosphopantothenate, log2 fold change): 0.0324
Log2(fold changes) 5-aminopentanoic acid ([2]; metabolite 5-aminopentanoic acid, log2 fold change): 0.0000
Log2(fold changes) 5-methyl-THF ([2]; metabolite 5-methyl-THF, log2 fold change): 0.0000
Log2(fold changes) 5-phosphoribosyl-1-pyrophosphate ([2]; metabolite 5-phosphoribosyl-1-pyrophosphate, log2 fold change): 0.0000
Log2(fold changes) 6-phospho-D-gluconate ([2]; metabolite 6-phospho-D-gluconate, log2 fold change): -0.0221
Log2(fold change) HVDD ([2]; metabolite HVDD): 0.0000
Log2(fold change) Hydroxyisocaproic acid ([2]; metabolite Hydroxyisocaproic acid): 0.0000
Log2(fold change) IDP ([2]; metabolite IDP): 0.0726
Log2(fold change) IMP ([2]; metabolite IMP): 0.0056
Log2(fold change) Inositol ([2]; metabolite Inositol): 0.0000
Log2(fold change) Isopentyl-PP ([2]; metabolite Isopentyl-PP): 0.0000
Log2(fold change) L-arginino-succinate ([2]; metabolite L-arginino-succinate): -0.9519
Log2(fold change) LD ([2]; metabolite LD): -0.1057
Log2(fold change) Myristoyl/tetradecanoyl-CoA ([2]; metabolite Myristoyl/tetradecanoyl-CoA): 0.0333
Log2(fold change) N-Acetyl-L-alanine ([2]; metabolite N-Acetyl-L-alanine): -0.2647
Log2(fold change) N-acetyl-L-ornithine ([2]; metabolite N-acetyl-L-ornithine): -0.6357
Log2(fold change) N-acetyl-glucosamine-1/6-phosphate ([2]; metabolite N-acetyl-glucosamine-1/6-phosphate): 0.0000
Log2(fold change) N-acetyl-glutamate ([2]; metabolite N-acetyl-glutamate): -0.0437
Log2(fold change) N-acetyl-glutamine ([2]; metabolite N-acetyl-glutamine): 0.0000
Log2(fold change) N-carbamoyl-L-aspartate ([2]; metabolite N-carbamoyl-L-aspartate): -0.1460
Log2(fold change) NAD+ ([2]; metabolite NAD+): -0.0402
Log2(fold change) NADH ([2]; metabolite NADH): 0.0000
Log2(fold change) NADP+ ([2]; metabolite NADP+): -0.0151
Log2(fold change) NADPH ([2]; metabolite NADPH): -0.2368
Log2(fold change) O-acetyl-L-serine ([2]; metabolite O-acetyl-L-serine): 0.0000
Log2(fold change) Octoluse 8/1P ([2]; metabolite Octoluse 8/1P): -0.0627
Log2(fold change) Octoluse Bisphosphate ([2]; metabolite Octoluse Bisphosphate): -0.2224
Log2(fold change) PD ([2]; metabolite PD): -0.6715
Log2(fold change) PE ([2]; metabolite PE): -0.8261
Log2(fold change) PEE ([2]; metabolite PEE): -0.8026
Log2(fold change) PEEK ([2]; metabolite PEEK): -1.0553
Log2(fold change) PVNF ([2]; metabolite PVNF): -1.0323
Log2(fold change) Pyroglutamic acid ([2]; metabolite Pyroglutamic acid): -0.2992
Log2(fold change) Pyrophosphate ([2]; metabolite Pyrophosphate): 0.0000
Log2(fold change) Ribose-5-phosphate ([2]; metabolite Ribose-5-phosphate): -0.3541
Log2(fold change) S-adenosyl-L-homocysteine ([2]; metabolite S-adenosyl-L-homocysteine): -0.4489
Log2(fold change) S-adenosyl-L-methioninamine ([2]; metabolite S-adenosyl-L-methioninamine): 0.0000
Log2(fold change) S-adenosyl-L-methionine ([2]; metabolite S-adenosyl-L-methionine): 0.0000
Log2(fold change) S-methyl-5'-thioadenosine ([2]; metabolite S-methyl-5'-thioadenosine): 0.0780
Log2(fold change) SD ([2]; metabolite SD): -0.5378
Log2(fold change) SDL ([2]; metabolite SDL): -0.2618
Log2(fold change) SID ([2]; metabolite SID): -0.7176
Log2(fold change) Sedoheptulose bisphosphate ([2]; metabolite Sedoheptulose bisphosphate): -0.0691
Log2(fold change) Thiamine pyrophosphate ([2]; metabolite Thiamine pyrophosphate): 0.0528
Log2(fold changes) UDP-D-glucose ([2]; metabolite UDP-D-glucose, log2 fold change): 0.0221
Log2(fold changes) UDP-D-glucuronate ([2]; metabolite UDP-D-glucuronate, log2 fold change): 0.0757
Log2(fold changes) UDP-N-acetyl-glucosamine ([2]; metabolite UDP-N-acetyl-glucosamine, log2 fold change): -0.0029
Log2(fold changes) UDP ([2]; metabolite UDP, log2 fold change): 0.0413
Log2(fold changes) UMP ([2]; metabolite UMP, log2 fold change): 0.0984
Log2(fold changes) UTP ([2]; metabolite UTP, log2 fold change): 0.0275
Log2(fold change) hydroxyphenylpyruvate ([2]; metabolite hydroxyphenylpyruvate): 0.0000
Log2(fold change) hydroxyproline/Aminolevulinate ([2]; metabolite hydroxyproline/Aminolevulinate): -0.1667
Log2(fold change) hypoxanthine ([2]; metabolite hypoxanthine): 0.0000
Log2(fold change) indole ([2]; metabolite indole): 0.0000
Log2(fold change) inosine ([2]; metabolite inosine): -0.7307
Log2(fold change) isoleucine ([2]; metabolite isoleucine): -0.3373
Log2(fold change) lactate ([2]; metabolite lactate): -0.7427
Log2(fold change) leucine ([2]; metabolite leucine): -0.5467
Log2(fold change) lysine ([2]; metabolite lysine): -0.9287
Log2(fold change) malate ([2]; metabolite malate): -0.2859
Log2(fold change) maleic acid ([2]; metabolite maleic acid): -0.2558
Log2(fold change) methionine ([2]; metabolite methionine): -0.5836
Log2(fold change) myo-inositol ([2]; metabolite myo-inositol): -1.2017
Log2(fold change) nicotinamide mononucleotide ([2]; metabolite nicotinamide mononucleotide): -0.1717
Log2(fold change) nicotinate ([2]; metabolite nicotinate): -0.0538
Log2(fold change) ornithine ([2]; metabolite ornithine): 0.0000
Log2(fold change) orotate ([2]; metabolite orotate): -0.5668
Log2(fold change) orotidine-5'-phosphate ([2]; metabolite orotidine-5'-phosphate): -1.0458
Log2(fold change) oxaloacetate ([2]; metabolite oxaloacetate): 0.0000
Log2(fold change) p-aminobenzoate ([2]; metabolite p-aminobenzoate): 0.0000
Log2(fold change) p-hydroxybenzoate ([2]; metabolite p-hydroxybenzoate): 0.0000
Log2(fold change) pantothenate ([2]; metabolite pantothenate): 0.0000
Log2(fold change) phenylalanine ([2]; metabolite phenylalanine): -0.5609
Log2(fold change) phenylpyruvate ([2]; metabolite phenylpyruvate): 0.0000
Log2(fold change) phosphoenolpyruvate ([2]; metabolite phosphoenolpyruvate): 0.3731
Log2(fold change) prephenate ([2]; metabolite prephenate): 0.0000
Log2(fold change) proline ([2]; metabolite proline): -0.4274
Log2(fold change) pyridoxine ([2]; metabolite pyridoxine): -0.6579
Log2(fold change) pyruvate ([2]; metabolite pyruvate): -0.6264
Log2(fold change) riboflavin ([2]; metabolite riboflavin): -0.1882
Log2(fold change) ribose ([2]; metabolite ribose): -0.6495
Log2(fold change) ribose-phosphate ([2]; metabolite ribose-phosphate): -0.3829
Log2(fold change) ribulose-5-phosphate ([2]; metabolite ribulose-5-phosphate): -0.2140
Log2(fold change) serine ([2]; metabolite serine): -0.3504
Log2(fold change) sn-glycerol-3-phosphate ([2]; metabolite sn-glycerol-3-phosphate): 0.0117
Log2(fold change) succinate/Methylmalonic acid ([2]; metabolite succinate/Methylmalonic acid): 0.0257
Log2(fold change) succinyl-CoA/methylmalonyl-CoA ([2]; metabolite succinyl-CoA/methylmalonyl-CoA): 0.0000
Log2(fold change) taurine ([2]; metabolite taurine): -0.1171
Log2(fold change) thiamine ([2]; metabolite thiamine): -0.2236
Log2(fold change) threonine/homoserine ([2]; metabolite threonine/homoserine): -0.3606
Log2(fold change) thymidine ([2]; metabolite thymidine): 0.0000
Log2(fold changes) thymine ([2]; metabolite thymine, log2 fold change): 0.0000
Log2(fold changes) trehalose-6-Phosphate ([2]; metabolite trehalose-6-Phosphate, log2 fold change): 0.0000
Log2(fold changes) tryptophan ([2]; metabolite tryptophan, log2 fold change): -0.3412
Log2(fold changes) tyrosine ([2]; metabolite tyrosine, log2 fold change): -0.2808
Log2(fold changes) uridine ([2]; metabolite uridine, log2 fold change): 0.0000
IC50 ([3]; 3D7, read-out: Early rings Mean IC50 (IC50^8h), 8-h exposure 0–8 hr, 3D7-A10, survival at 60 h): 15.4 nM
IC50 ([3]; 3D7, read-out: Early trophozoites Mean IC50 (IC50^8h), 8-h exposure 16–24 hr, 3D7-A10, survival at 60 h): 19.5 nM
IC50 ([3]; 3D7, read-out: Late rings Mean IC50 (IC50^8h), 8-h exposure 8–16 hr, 3D7-A10, survival at 60 h): 15.8 nM
IC50 ([3]; 3D7, read-out: Late trophozoites Mean IC50 (IC50^8h), 8-h exposure 24–32 hr, 3D7-A10, survival at 60 h): 22.3 nM
IC50 ([3]; 3D7, read-out: Schizonts Mean IC50 (IC50^8h), 8-h exposure 32–40 hr, 3D7-A10, survival at 60 h): 81 nM
Stage of peak activity (Figure 6) ([3]; period when the parasite was most susceptible (lowest IC50^8h)): ring and trophozoite stages; also recorded: both rings and trophozoites
